Results taken from patent publication US8044080B2, “Isoxazoline derivative and novel process for its preparation” (LG Life Sciences Ltd., priority 2005, dated 2011).

Legend:
[1] = Stability test of amorphous and crystalline form under severe condition (60° C.); type: physicochemical; details: after 28 days
From the text: Therefore, it should be understood that the crystalline form has better stability than the amorphous form enough to be used for the composition of inhibitor or therapeutic agent.

[2] = test system: Fas Antibody-Induced Acute Hepatitis in Mice; assay: Treatment effect on Fas antibody-induced acute hepatitis in mice (blood plasma ALT activity); type: in vivo, Male Balb/c mice; details: Mus musculus, Fas antibody model, plasma ALT 8 hours after drug injection
[3] = test system: LPS-Induced Acute Hepatitis in Mice; assay: Treatment effect on LPS-induced acute hepatitis in mice (blood plasma ALT activity); type: in vivo, Male Balb/c mice; details: Mus musculus, LPS/D-Gln model, plasma ALT 8 hours after drug injection

| amount destroyed in stability test [1] | quantitative amount in stability test [1] | Compound | ED50 ([2]; intravenous administration) | ED50 ([2]; oral administration) | ED50 ([3]; intravenous administration) | ED50 ([3]; oral administration) |
| --- | --- | --- | --- | --- | --- | --- |
| 50% | not decreased at all | CC(C)[C@@]1(C(=O)N[C@H]2CC(=O)O[C@]2(O)CF)CC(c2nccc3ccccc23)=NO1 [(4S,5S)-5-fluoromethyl-5-hydroxy-4-({[(5R)-5-isopropyl-3-(1-isoquinolinyl)-4,5-dihydro-5-isoxazolyl]carbonyl}amino)-2-dihydrofuranone] | – | – | – | – |
| – | – | CC(C)[C@@]1(C(=O)N[C@H]2CC(=O)O[C@]2(O)CF)CC(c2nccc3ccccc23)=NO1 [compound of formula (1), (4S,5S)-5-fluoromethyl-5-hydroxy-4-({[(5R)-5-isopropyl-3-(1-isoquinolinyl)-4,5-dihydro-5-isoxazolyl]carbonyl}amino)-2-dihydrofuranone] | 0.003 mg/kg | 0.018 mg/kg | 0.015 mg/kg | 0.02 mg/kg |
